According to patent publication US6458951B2, “Pyrazolopyrimidinone cGMP PDE5 inhibitors for the treatment of sexual dysfunction” (Pfizer Inc, priority 1998, dated 2002):

Assays:
cGMP PDE5 = cGMP PDE5 (UniProt O76074); experiment: Phosphodiesterase (PDE) inhibitory activity, in vitro, cGMP PDE5; type: biochemical, human or rabbit; conditions: in vitro activity as inhibitors of cGMP PDE5
Protocol: In vitro PDE inhibitory activities against cyclic guanosine 3′,5′-monophosphate (cGMP) and cyclic adenosine 3′,5′-monophosphate (cAMP) phosphodiesterases were determined by measurement of their IC50 values (the concentration of compound required for 50% inhibition of enzyme activity).
The required PDE enzymes were isolated from a variety of sources, including human corpus cavernosum, human and rabbit platelets, human cardiac ventricle, human skeletal muscle and bovine retina, essentially by the method of W. J. Thompson and M. M. Appleman (Biochem., 1971, 10, 311). In particular, the cGMP-specific PDE (PDE5) and the cGMP-inhibited cAMP PDE (PDE3) were obtained from human corpus cavernosum tissue, human platelets or rabbit platelets; the cGMP-stimulated PDE (PDE2) was obtained from human corpus cavernosum; the calcium/calmodulin (Ca/CAM)-dependent PDE (PDE1) from human cardiac ventricle; the cAMP-specific PDE (PDE4) from human skeletal muscle; and the photoreceptor PDE (PDE6) from bovine retina.
Assays were performed using a modification of the “batch” method of W. J. Thompson et al. (Biochem., 1979, 18, 5228).

| Structure (SMILES) | melting point | IC50 (cGMP PDE5) |
| --- | --- | --- |
| CCc1c2nc(-c3cc(S(=O)(=O)N4CCN(CC)CC4)cnc3OCCOC)[nH]c(=O)c2nn1Cc1ccccn1 (hydrate or solvate) [Example 4, 3-Ethyl-5-[5-(4-ethylpiperazin-1-ylsulphonyl)-2-(2-methoxyethoxy)pyridin-3-yl]-2-(Pyridin-2-yl)methyl-2,6-dihydro-7H-pyrazolo[4,3-d]pyrimidin-7-one] | 139 to 140 °C | – |
| CCCc1c2nc(-c3cc(S(=O)(=O)N4CCN(CC)CC4)cnc3OCCOCC)[nH]c(=O)c2nn1Cc1ccccn1 [Example 10, 5-[2-(2-Ethoxyethoxy)-5-(4-ethylpiperazin-1-ylsulphonyl)pyridin-3-yl]-3-n-propyl-2-(pyridin-2-yl)methyl-2,6-dihydro-7H-pyrazolo[4,3-d]pyrimidin-7-one] | – | 10.1 nM |
| CCc1c2nc(-c3cc(S(=O)(=O)N4CCN(CC)CC4)cnc3OCCCOC)[nH]c(=O)c2nn1Cc1ccccn1 [Example 11, 3-Ethyl-5-[5-(4-ethylpiperazin-1-ylsulphonyl)-2-(3-methoxyprop-1-oxy)-pyridin-3-yl]-2-(pyridin-2-yl)methyl-2,6-dihydro-7H-pyrazolo[4,3-d]pyrimidin-7-one] | – | 10 nM |
| CCc1c2nc(-c3cc(S(=O)(=O)N4CCN(CC)CC4)cnc3O[C@@H]3CCOC3)[nH]c(=O)c2nn1Cc1ccccn1 [Example 18, 3-Ethyl-5-[5-(4-ethylpiperazin-1-ylsulphonyl)-2-(tetrahydrofuran-3(R)-yloxy)pyridin-3-yl]-2-(pyridin-2-yl)methyl-2,6-dihydro-7H-pyrazolo[4,3-d]pyrimidin-7-one] | – | 8.9 nM |
| CCCc1c2nc(-c3cc(S(=O)(=O)N4CCN(CC)CC4)cnc3OCC)[nH]c(=O)c2nn1Cc1ncccn1 [Example 43b, 5-[2-Ethoxy-5-(4-ethylpiperazin-1-ylsulphonyl)pyridin-3-yl]-3-n-propyl-2-(pyrimidin-2-yl)methyl-2,6-dihydro-7H-pyrazolo[4,3-d]pyrimidin-7-one] | – | 3.6 nM |
| CCc1nn(Cc2nccn2C)c2c(=O)[nH]c(-c3cc(S(=O)(=O)N4CCN(CC)CC4)cnc3OCCOC)nc12 [Example 46, 3-Ethyl-5-[5-(4-ethylpiperazin-1-ylsulphonyl)-2-(2-methoxyethoxy)pyridin-3-yl]-1-(1-methylimidazol-2-yl)methyl-1,6-dihydro-7H-pyrazolo[4,3-d]pyrimidin-7-one] | – | 8.1 nM |
| CCCc1nn(Cc2ncccn2)c2c(=O)[nH]c(-c3cc(S(=O)(=O)N4CCN(CC)CC4)cnc3OCCOC)nc12 [Example 48, 5-[5-(4-Ethylpiperazin-1-ylsulphonyl)-2-(2-methoxyethoxy)pyridin-3-yl]-3-n-propyl-1-(pyrimidin-2-yl)methyl-1,6-dihydro-7H-pyrazolo[4,3-d]pyrimidin-7-one] | – | 6.9 nM |
| CCc1c2nc(-c3cc(S(=O)(=O)N4CCN(CC)CC4)cnc3O[C@H](C)[C@@H](C)OC)[nH]c(=O)c2nn1C [Example 98, 3-Ethyl-5-[5-(4-ethylpiperazin-1-ylsulphonyl)-2-(2-(R)-methoxy-1-(R)-methylpropoxy)pyridin-3-yl]-2-methyl-2,6-dihydro-7H-pyrazolo[4,3-d]pyrimidin-7-one] | – | 7 nM |
| CCc1c2nc(-c3cc(S(=O)(=O)N4CCN(CC)CC4)cnc3OCc3ccccn3)[nH]c(=O)c2nn1C [Example 99, 3-Ethyl-5-[5-(4-ethylpiperazin-1-ylsulphonyl)-2-(pyridin-2-yl)methoxypyridin-3-yl]-2-methyl-2,6-dihydro-7H-pyrazolo[4,3-d]pyrimidin-7-one] | – | 5.7 nM |
| CCCc1nn(C)c2c(=O)[nH]c(-c3cc(S(=O)(=O)N4CCN(CC)CC4)cnc3OCc3ccccn3)nc12 [Example 127, 5-{5-(4-Ethylpiperazin-1-ylsulphonyl)-2-[(pyridin-2-yl)methoxy]pyridin-3-yl}-1-methyl-3-n-propyl-1,6-dihydro-7H-pyrazolo[4,3-d]pyrimidin-7-one] | – | 7.3 nM |
| CCc1c2nc(-c3cc(S(=O)(=O)N4CCN(CC)CC4)cnc3N3CCCC3)[nH]c(=O)c2nn1Cc1ccccn1 [Example 153] | – | 7.2 nM |
